# Experimental data published in patent US4303664A, “Novel penicillin derivatives containing a coumarin nucleus and medicines containing the same” (Teijin Limited, priority 1978, dated 1981).
# How the values were obtained:
# Rettgerella var. Tid-21 = test: Bactericidal test (MIC), Rettgerella var. Tid-21; type: cell-based; conditions: (10) Rettgerella var. Tid-21; read-out: MIC
# Excerpt: (§1) Results of bactericidal tests (MIC, r/ml) on the penicillin derivatives of this invention prepared in the above examples are shown in the following table.
# [1] = Acute toxicity values [(LD50), mouse]; conditions: in vivo
# Excerpt: Acute toxicity values [(LD50), mouse] of some penicillin derivatives of this invention are illustrated in the following table.
# [2] = test system: Pseudomonas aeruginosa 130; test: Bactericidal test (MIC), Pseudomonas aeruginosa 130; type: cell-based; conditions: (16) Pseudomonas aeruginosa 130
# Excerpt: as §1
# [3] = test system: Staphylococcus aureus 1248; test: Bactericidal test (MIC), Staphylococcus aureus 1248; type: cell-based; conditions: (2) Staphylococcus aureus 1248; read-out: MIC
# Excerpt: as §1
# [4] = test system: Pseudomonas aeruginosa IFO-3080; test: Bactericidal test (MIC), Pseudomonas aeruginosa IFO-3080; type: cell-based; conditions: IFO3080; (12) Pseudomonas aeruginosa IFO-3080; read-out: MIC
# Excerpt: as §1
# Serratia G-18 = test: Bactericidal test (MIC), Serratia G-18; type: cell-based; conditions: G18; (11) Serratia G-18; read-out: MIC
# Excerpt: as §1
# Bacillus subtilis = test: Bactericidal test (MIC), Bacillus subtilis; type: cell-based; conditions: (3) Bacillus subtilis
# Excerpt: as §1
# [5] = test system: Pseudomonas aeruginosa 0-37; test: Bactericidal test (MIC), Pseudomonas aeruginosa 0-37; type: cell-based; conditions: 037; (13) Pseudomonas aeruginosa 0-37
# Excerpt: as §1
# [6] = test system: Pseudomonas aeruginosa Tid-53; test: Bactericidal test (MIC), Pseudomonas aeruginosa Tid-53; type: cell-based; conditions: TID53; (14) Pseudomonas aeruginosa Tid-53
# Excerpt: as §1
# [7] = test system: Escherichia Coli NIHJ JC-2; test: Bactericidal test (MIC), Escherichia Coli NIHJ JC-2; type: cell-based; conditions: NIHJJC2; (5) Escherichia Coli NIHJ JC-2
# Excerpt: as §1
# Enterobactor cloacae 147 = test: Bactericidal test (MIC), Enterobactor cloacae 147; type: cell-based; conditions: (7) Enterobactor cloacae 147
# Excerpt: as §1
# [8] = test system: Pseudomonas aeruginosa GN-315; test: Bactericidal test (MIC), Pseudomonas aeruginosa GN-315; type: cell-based; conditions: GN315; (15) Pseudomonas aeruginosa GN-315
# Excerpt: as §1
# [9] = test system: Enterobacter cloacae IF012937; test: Bactericidal test (MIC), Enterobacter cloacae IF012937; type: cell-based; conditions: (8) Enterobacter cloacae IF012937
# Excerpt: as §1
# Morganella var. G-2 = test: Bactericidal test (MIC), Morganella var. G-2; type: cell-based; conditions: VAR.G2; (9) Morganella var. G-2; read-out: MIC
# Excerpt: as §1
# [10] = test system: Staphylococcus aureus 209-p; test: Bactericidal test (MIC), Staphylococcus aureus 209-p; type: cell-based; conditions: (1) Staphylococcus aureus 209-p
# Excerpt: as §1
# [11] = test system: Salmonella typhimurium G-20; test: Bactericidal test (MIC), Salmonella typhimurium G-20; type: cell-based; conditions: Salmonella enterica; (4) Salmonella typhimurium G-20
# Excerpt: as §1
# [12] = test system: Klebsiella neumoniae ATCC10031; test: Bactericidal test (MIC), Klebsiella neumoniae ATCC10031; type: cell-based; conditions: (6) Klebsiella neumoniae ATCC10031; read-out: MIC
# Excerpt: as §1
# [13] = Rates of protein fixation (human serum protein); type: in vitro ADME; conditions: read-out: Rate of protein fixation (converted)
# Excerpt: Rates of protein fixation (human serum protein) of the penicillin derivatives of this invention are illustrated as follows: […]
fraction unbound [13],Structure (SMILES),MIC (Rettgerella var. Tid-21),LD50 ([1]; Oral),MIC [2],MIC [3],MIC [4],MIC (Serratia G-18),MIC (Bacillus subtilis),MIC [5],MIC [6],MIC [7],MIC (Enterobactor cloacae 147),MIC [8],MIC [9],MIC (Morganella var. G-2),MIC [10],MIC [11],MIC [12],"LD50 ([1]; ip, Intraabdominal)"
,"CC1(C)S[C@@H]2[C@H](NC(=O)[C@H](NC(=O)c3cc4ccccc4oc3=O)c3ccccc3)C(=O)N2[C@H]1C(=O)O [Example 1, D(-)-α-(Coumarin-3-carbonamido)benzylpenicillin]",1.56 µg/mL,> 4000 mg/kg,< 0.4 µg/mL,1.56 µg/mL,< 0.4 µg/mL,12.5 µg/mL,< 0.4 µg/mL,12.5 µg/mL,3.13 µg/mL,< 0.4 µg/mL,3.13 µg/mL,1.56 µg/mL,6.25 µg/mL,3.13 µg/mL,< 0.4 µg/mL,< 0.4 µg/mL,< 0.4 µg/mL,
0.33,"CC1(C)S[C@@H]2[C@H](NC(=O)[C@H](NC(=O)c3cc4cc(Cl)ccc4oc3=O)c3ccccc3)C(=O)N2[C@H]1C(=O)O [Example 2, D(-)-α-(6-Chlorocoumarin-3-carbonamido)benzylpenicillin]",12.5 µg/mL,,6.25 µg/mL,1.56 µg/mL,3.13 µg/mL,50 µg/mL,< 0.4 µg/mL,50 µg/mL,25 µg/mL,< 0.4 µg/mL,25 µg/mL,25 µg/mL,25 µg/mL,12.5 µg/mL,< 0.4 µg/mL,< 0.4 µg/mL,1.56 µg/mL,
0.2,"CC1(C)S[C@@H]2[C@H](NC(=O)[C@H](NC(=O)c3cc4cc(Br)ccc4oc3=O)c3ccccc3)C(=O)N2[C@H]1C(=O)O [Example 3, D(-)-α-(6-Bromocoumarin-3-carbonamido)benzylpenicillin]",6.25 µg/mL,,1.56 µg/mL,1.56 µg/mL,1.56 µg/mL,25 µg/mL,< 0.4 µg/mL,25 µg/mL,6.25 µg/mL,< 0.4 µg/mL,3.13 µg/mL,6.25 µg/mL,25 µg/mL,6.25 µg/mL,< 0.4 µg/mL,< 0.4 µg/mL,1.56 µg/mL,
,"CC1(C)S[C@@H]2[C@H](NC(=O)[C@H](NC(=O)c3cc4cc([N+](=O)[O-])ccc4oc3=O)c3ccccc3)C(=O)N2[C@H]1C(=O)O [Example 13, D(-)-α-(6-Nitrocoumarin-3-carbonamido)benzylpenicillin]",50 µg/mL,,6.25 µg/mL,6.25 µg/mL,6.25 µg/mL,50 µg/mL,< 0.4 µg/mL,100 µg/mL,25 µg/mL,< 0.4 µg/mL,25 µg/mL,12.5 µg/mL,12.5 µg/mL,6.25 µg/mL,< 0.4 µg/mL,< 0.4 µg/mL,12.5 µg/mL,
,"COC(=O)c1cccc2cc(C(=O)N[C@@H](C(=O)N[C@@H]3C(=O)N4[C@@H]3SC(C)(C)[C@@H]4C(=O)O)c3ccccc3)c(=O)oc12 [Example 14, D(-)-α-(8-Methoxycarbonylcoumarin-3-carbonamido)benzylpenicillin]",12.5 µg/mL,,3.13 µg/mL,3.13 µg/mL,3.13 µg/mL,12.5 µg/mL,< 0.4 µg/mL,100 µg/mL,25 µg/mL,< 0.4 µg/mL,25 µg/mL,12.5 µg/mL,6.25 µg/mL,1.56 µg/mL,< 0.4 µg/mL,< 0.4 µg/mL,1.56 µg/mL,
,"Cc1cccc2cc(C(=O)N[C@@H](C(=O)N[C@@H]3C(=O)N4[C@@H]3SC(C)(C)[C@@H]4C(=O)O)c3ccccc3)c(=O)oc12 [Example 15, D(-)-α-(8-Methylcoumarin-3-carbonamido)benzylpenicillin]",50 µg/mL,,25 µg/mL,6.25 µg/mL,12.5 µg/mL,200 µg/mL,< 0.4 µg/mL,200 µg/mL,100 µg/mL,< 0.4 µg/mL,200 µg/mL,200 µg/mL,100 µg/mL,100 µg/mL,< 0.4 µg/mL,< 0.4 µg/mL,6.25 µg/mL,
0.55,"CC1(C)S[C@@H]2[C@H](NC(=O)[C@H](NC(=O)c3cc4ccccc4oc3=O)c3ccc(O)cc3)C(=O)N2[C@H]1C(=O)O [Example 16, D(-)-α-(Coumarin-3-carbonamido)-p-hydroxybenzylpenicillin]",1.56 µg/mL,,1.56 µg/mL,1.56 µg/mL,0.8 µg/mL,50 µg/mL,< 0.4 µg/mL,25 µg/mL,6.25 µg/mL,< 0.4 µg/mL,6.25 µg/mL,3.13 µg/mL,25 µg/mL,12.5 µg/mL,< 0.4 µg/mL,< 0.4 µg/mL,6.25 µg/mL,
,"CC(=O)Oc1ccc2oc(=O)c(C(=O)N[C@@H](C(=O)N[C@@H]3C(=O)N4[C@@H]3SC(C)(C)[C@@H]4C(=O)O)c3ccc(O)cc3)cc2c1 [Example 17, D(-)-α-(6-Acetoxycoumarin-3-carbonamido)-p-hydroxybenzylpenicillin]",3.13 µg/mL,,1.56 µg/mL,3.13 µg/mL,0.8 µg/mL,50 µg/mL,< 0.4 µg/mL,25 µg/mL,6.25 µg/mL,< 0.4 µg/mL,12.5 µg/mL,3.13 µg/mL,12.5 µg/mL,12.5 µg/mL,< 0.4 µg/mL,< 0.4 µg/mL,3.13 µg/mL,
,"COc1cccc2cc(C(=O)N[C@@H](C(=O)N[C@@H]3C(=O)N4[C@@H]3SC(C)(C)[C@@H]4C(=O)O)c3ccc(O)cc3)c(=O)oc12 [Example 18, D(-)-α-(8-Methoxycoumarin-3-carbonamido)-p-hydroxylbenzylpenicillin]",3.13 µg/mL,> 4000 mg/kg,1.56 µg/mL,1.56 µg/mL,0.8 µg/mL,6.25 µg/mL,< 0.4 µg/mL,12.5 µg/mL,3.13 µg/mL,< 0.4 µg/mL,3.13 µg/mL,3.13 µg/mL,3.13 µg/mL,3.13 µg/mL,< 0.4 µg/mL,< 0.4 µg/mL,0.8 µg/mL,2000 mg/kg
,"CCOc1cccc2cc(C(=O)N[C@@H](C(=O)N[C@@H]3C(=O)N4[C@@H]3SC(C)(C)[C@@H]4C(=O)O)c3ccccc3)c(=O)oc12 [Example 19, D(-)-α-(8-Ethoxycoumarin-3-carbonamido)benzylpenicillin]",3.13 µg/mL,,1.56 µg/mL,3.13 µg/mL,1.56 µg/mL,12.5 µg/mL,< 0.4 µg/mL,12.5 µg/mL,3.13 µg/mL,< 0.4 µg/mL,6.25 µg/mL,6.25 µg/mL,6.25 µg/mL,3.13 µg/mL,< 0.4 µg/mL,< 0.4 µg/mL,< 0.4 µg/mL,
,"CC(=O)Nc1ccc2oc(=O)c(C(=O)N[C@@H](C(=O)N[C@@H]3C(=O)N4[C@@H]3SC(C)(C)[C@@H]4C(=O)O)c3ccccc3)cc2c1 [Example 20, D(-)-α-(6-Acetylaminocoumarin-3-carbonamido)benzylpenicillin]",6.25 µg/mL,,1.56 µg/mL,3.13 µg/mL,3.13 µg/mL,50 µg/mL,< 0.4 µg/mL,50 µg/mL,6.25 µg/mL,< 0.4 µg/mL,6.25 µg/mL,6.25 µg/mL,6.25 µg/mL,6.25 µg/mL,< 0.4 µg/mL,< 0.4 µg/mL,1.56 µg/mL,

Structure (SMILES),fraction unbound [13],MIC (Rettgerella var. Tid-21),LD50 ([1]; Oral),MIC [2],MIC [3],MIC [4],MIC (Serratia G-18),MIC (Bacillus subtilis),MIC [5],MIC [6],MIC [7],MIC (Enterobactor cloacae 147),MIC [8],MIC [9],MIC (Morganella var. G-2),MIC [10],MIC [11],MIC [12],"LD50 ([1]; ip, Intraabdominal)"
"COc1cccc2cc(C(=O)N[C@@H](C(=O)N[C@@H]3C(=O)N4[C@@H]3SC(C)(C)[C@@H]4C(=O)O)c3ccccc3)c(=O)oc12 [Example 6, D(-)-α-(8-Methoxycoumarin-3-carbonamido)benzylpenicillin]",0.42,3.13 µg/mL,> 4000 mg/kg,1.56 µg/mL,0.8 µg/mL,0.8 µg/mL,6.25 µg/mL,< 0.4 µg/mL,12.5 µg/mL,6.25 µg/mL,< 0.4 µg/mL,3.13 µg/mL,3.13 µg/mL,6.25 µg/mL,0.8 µg/mL,< 0.4 µg/mL,< 0.4 µg/mL,0.8 µg/mL,2000 mg/kg
